According to US10254223B2, “Apparatus and methods for analysing fluorescent particles” (ChemoMetec A/S, priority 2008, dated 2019):

Key:
Format in all cases: cell-based
Jurkat cells [1] = test: Early apoptosis by mitochondrial membrane potential (JC-1 and DAPI staining); details: 10 μM campthotecin, 5 hours at 37° C.
Description: Loss of the mitochondrial membrane potential is known to precede apoptosis and chemical-hypoxia-induced necrosis. The lipophilic cationic dye JC-1 (5,5,6,6-tetrachloro-1,1,3,3-tetraethylbenzimidazol-carbocyanine iodide) display potential-dependent accumulation in the mitochondria and provides a simple, fluorescent-based method for distinguishing between healthy and apoptotic cells. In healthy cells, the negative charge established by the intact mitochondrial membrane potential facilitates the accumulation of JC-1 in the mitochondrial matrix. At high concentrations JC-1 forms aggregates and become red fluorescent. In apoptotic cells the mitochondrial potential collapses and JC-1 localizes to the cytosol in its monomeric green fluorescent form. A cell impermeable DNA stain (like DAPI) can be included to stain necrotic and late apoptotic cells. Jurkat cells were grown in RPMI+10% FCS to a density of 5.0×10^5 cells/ml and treated with 10 μM campthotecin (apoptosis inducing drug) for 5 hours. Cells were stained with 2.5 μg/ml JC-1 for 10 minutes at 37° C., washed with PBS, resuspended in PBS+1 μg/ml DAPI and analysed using the claimed apparatus.

Jurkat (JM) cells = test: Annexin V apoptosis assay (AlexaFluor 488-Annexin V, PI) with the claimed apparatus; details: 3 μM Camptothecin, three hours incubation
Procedure: Here the claimed apparatus is used in assay fluorescently labeled Annexin V to stain apoptotic and necrotic cells and PI to distinguish between the early and late apoptotic/necrotic cells. Jurkat (JM) cells were cultivated at 37° C. in a humidified air atmosphere with 5% CO2 in RPMI (Invitrogen, Cat. No. 61870) supplemented with 10% heat-inactivated fetal bovine serum (Invitrogen, Cat. No. 10108-165). 3 μM Camptothecin (Sigma, Cat. No. C-9911) was added to the cells in order to induce apoptosis. After three hours incubation (37° C., 5% CO2) cells were harvested in cold phosphate-buffered saline (PBS) and stained with AlexaFluor 488-labelled Annexin V from the Vybrant® Apoptosis Assay Kit #2 (Molecular probes, V13241) according to the manufacturer's protocol. The stained cells were loaded into a cassette containing propidium iodide. The cassette was placed in the claimed apparatus and the cells were counted and investigated using the claimed apparatus and in-house developed software. The cells were also investigated using an Olympus IX50 fluorescent microscope. Images were captured using a Lumenera CCD camera and in-house developed software. AF488 fluorescence was detected using a U-MWIBA3 (blue bandpass) filter cube (Olympus) and PI fluorescence was detected using a U-MWG2 (green longpass) filter cube (Olympus).

Jurkat cells [2] = test: Annexin V apoptosis assay (AF594-annexin V, DACM, SYTOX green) with the claimed apparatus; details: 1 μM nocodazole, 16 hours; for annexin V positive cells (apoptotic cells): viable cells, nonviable cells gated out by SYTOX green
Procedure: Here the claimed apparatus is used in assaying fluorescently labelled annexin V to stain apoptotic and necrotic cells and SYTOX green to distinguish between the early and late apoptotic/necrotic cells. In addition DACM is used to stain all viable cells. Jurkat cells were cultivated at 37° C. in a humidified air atmosphere with 5% CO2 in RPMI (Invitrogen, Cat. No. 61870) supplemented with 10% heat-inactivated fetal bovine serum (Invitrogen, Cat. No. 10108-165). Cells were either treated with 1 μM nocodazole (Sigma, Cat. No. M1404) or left untreated. After 16 hours incubation (37° C., 5% CO2) cells were harvested in cold phosphate-buffered saline (PBS) and stained with AlexaFluor 594-labelled annexin V (Molecular probes, A-13203) according to the manufacturer's protocol. After annexin V staining all viable cells were co-stained using DACM (N-(7-dimethylamino-4-methyl-3-coumarinyl)-maleimide, WAKO Pure Chemical Industries, CAS no. 55145-14-7) and nonviable cells were stained with SYTOX green (Invitrogen, S7020). The stained cells were loaded into a NC-Slide. The NC-Slide was placed in the claimed apparatus and the cells were counted and investigated using the claimed apparatus and in-house developed software. The cells were also investigated using an Olympus IX50 fluorescent microscope. SYTOX green fluorescence was detected using a U-MWIBA3 (blue bandpass) filter cube (Olympus), the annexin V AF594 conjugate was detected using a U-MWG2 (green longpass) filter cube (Olympus) and DACM was detected using the U-MNUA2 (UV band pass) filter cube (Olympus).

CHO cells = test: Caspase based assay (SR-VAD-FMK poly-caspase FLICA, DACM, SYTOX green); details: 1 μM nocodazole, 16 hours
Description: Another caspase based apoptosis assay is the FLICAssay (Fluorochrome Inhibitor of Caspases Assay). This assay detects active caspases inside the cell using a caspase specific inhibitor sequence linked to a fluorescent probe. The non-cytotoxic caspase specific inhibitor is cell permeant and passes through the intact plasma membrane and covalently binds to the reactive cysteine residue on the large subunit of the active caspase heterodimer. […] Measuring the fluorescence thus gives a direct measure of the amount of active caspase in the whole living cell.
To quantify caspase activity by the FLICAssay, the cells to be investigated are incubated with the chosen caspase specific inhibitor sequence linked to a fluorescent probe. Cells are washed to remove unbound inhibitor and the fluorescence of the cells is determined using the claimed apparatus thereby making measurement of caspase activity on the single cell level possible. […]
CHO cells were cultivated in RPMI (Invitrogen, Cat. No. 61870) supplemented with 10% heat-inactivated fetal bovine serum (Invitrogen, Cat. No. 10108-165) at 37° C. in a humidified air atmosphere with 5% CO2. […] The NC-Slide was placed in the claimed apparatus and the cells were counted and investigated using the claimed apparatus and in-house developed software. […]

## CC[C@@]1(O)C(=O)OCc2c1cc1n(c2=O)Cc2cc3ccccc3nc2-1 [Camptothecin]
Jurkat cells [1]
  depolarized/apoptotic cells (JC-1): 60%
  viability (DAPI positive cells counted): approximately 96%
Jurkat (JM) cells
  concentration of apoptotic cells (Annexin V conjugate binding cells): 2.6×10^5
  concentration of non-viable cells (PI): 4.5×10^4

## COC(=O)Nc1nc2ccc(C(=O)c3cccs3)cc2[nH]1 [nocodazole]
Jurkat cells [2]
  viability: almost not affected
  annexin V positive cells (apoptotic cells): more than 40%
Jurkat cells [2]; listed as Nocodazole
  annexin V positive cells (apoptotic cells): ~40%
CHO cells
  cells exhibiting strong red fluorescence (caspase activity, apoptotic cells) versus untreated cells: Substantially more
